Source: ChEMBL document CHEMBL5030563, “Structure-Based Design of Dual-Acting Compounds Targeting Adenosine A2A Receptor and Histone Deacetylase as Novel Tumor Immunotherapeutic Agents” (J Med Chem, 2021)

Legend:
Adenosine receptor A2a = Adenosine receptor A2a (Homo sapiens, UniProt P29274); assay: Displacement of [3H]SCH58261 from adenosine A2A receptor membrane (unknown origin) measured after 60 mins by scintillation counting analysis; format: cell membranes
Histone deacetylase 1 = Histone deacetylase 1 (Homo sapiens, UniProt Q13547); assay: Inhibition of HDAC1 (unknown origin) assessed as release of 7-amino-4-methylcoumarin incubated in room temperature for 15 min measured by Spectra max microtitre plate reader
[1] = molecular target: T1, Protein deacetylase HDAC6 (Homo sapiens, UniProt Q9UBN7); assay: Inhibition of HDAC6 (unknown origin) assessed as release of 7-amino-4-methylcoumarin incubated in room temperature for 15 min measured by Spectra max microtitre plate reader
T1 sequence (Q9UBN7 whole entry): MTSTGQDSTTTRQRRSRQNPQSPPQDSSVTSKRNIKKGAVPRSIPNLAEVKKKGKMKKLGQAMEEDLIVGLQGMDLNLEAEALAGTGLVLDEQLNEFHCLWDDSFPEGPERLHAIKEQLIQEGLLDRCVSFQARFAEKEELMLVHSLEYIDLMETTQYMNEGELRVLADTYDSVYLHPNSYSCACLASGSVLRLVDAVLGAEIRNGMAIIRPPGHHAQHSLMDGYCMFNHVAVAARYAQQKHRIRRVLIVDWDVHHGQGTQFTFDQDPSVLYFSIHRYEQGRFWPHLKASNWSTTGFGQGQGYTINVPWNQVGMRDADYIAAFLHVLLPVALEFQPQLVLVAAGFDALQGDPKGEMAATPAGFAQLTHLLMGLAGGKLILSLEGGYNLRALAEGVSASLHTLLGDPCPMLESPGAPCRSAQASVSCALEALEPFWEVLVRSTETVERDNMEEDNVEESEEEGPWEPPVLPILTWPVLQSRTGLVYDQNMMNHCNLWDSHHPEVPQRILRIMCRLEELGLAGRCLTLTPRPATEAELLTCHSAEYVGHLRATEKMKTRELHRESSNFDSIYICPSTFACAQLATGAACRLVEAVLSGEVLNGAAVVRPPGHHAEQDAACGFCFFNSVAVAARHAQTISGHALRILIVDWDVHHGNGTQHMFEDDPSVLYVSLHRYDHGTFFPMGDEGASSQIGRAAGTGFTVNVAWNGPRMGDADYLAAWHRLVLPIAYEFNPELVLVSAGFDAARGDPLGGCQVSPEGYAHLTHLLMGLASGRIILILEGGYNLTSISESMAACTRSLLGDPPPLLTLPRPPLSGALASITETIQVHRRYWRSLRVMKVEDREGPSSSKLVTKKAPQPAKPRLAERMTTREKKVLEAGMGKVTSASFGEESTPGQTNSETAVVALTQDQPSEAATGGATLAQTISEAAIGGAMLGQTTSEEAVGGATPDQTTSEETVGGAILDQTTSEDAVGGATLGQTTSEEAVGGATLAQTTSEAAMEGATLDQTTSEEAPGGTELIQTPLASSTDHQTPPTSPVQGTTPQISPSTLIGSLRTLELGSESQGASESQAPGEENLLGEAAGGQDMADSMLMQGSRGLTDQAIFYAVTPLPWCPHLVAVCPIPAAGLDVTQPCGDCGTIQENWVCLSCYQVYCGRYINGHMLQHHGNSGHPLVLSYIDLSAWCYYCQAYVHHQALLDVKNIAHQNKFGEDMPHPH

MC-38 = assay: Antiproliferative activity against mouse MC38 cells measured after 72 hrs by CCK8 assay; format: functional
CT26 = assay: Antiproliferative activity against mouse CT26 cells measured after 72 hrs by CCK8 assay; format: functional
Adenosine receptor A3 = molecular target: T2, Adenosine receptor A3 (Homo sapiens, UniProt P0DMS8); assay: Displacement of [3H]DPCPX from human adenosine A3 receptor membrane (unknown origin) measured after 60 mins by scintillation counting analysis; format: cell membranes
T2 sequence (P0DMS8 whole entry): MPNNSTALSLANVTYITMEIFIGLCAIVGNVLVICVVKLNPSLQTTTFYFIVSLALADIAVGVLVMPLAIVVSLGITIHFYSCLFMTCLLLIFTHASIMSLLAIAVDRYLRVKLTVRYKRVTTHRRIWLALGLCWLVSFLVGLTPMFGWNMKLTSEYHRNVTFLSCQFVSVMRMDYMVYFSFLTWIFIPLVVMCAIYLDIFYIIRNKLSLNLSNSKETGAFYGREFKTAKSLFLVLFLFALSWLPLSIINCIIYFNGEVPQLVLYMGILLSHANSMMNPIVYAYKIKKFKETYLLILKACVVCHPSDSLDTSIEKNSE

Chain of Adenosine receptor A2a (P29274 whole entry): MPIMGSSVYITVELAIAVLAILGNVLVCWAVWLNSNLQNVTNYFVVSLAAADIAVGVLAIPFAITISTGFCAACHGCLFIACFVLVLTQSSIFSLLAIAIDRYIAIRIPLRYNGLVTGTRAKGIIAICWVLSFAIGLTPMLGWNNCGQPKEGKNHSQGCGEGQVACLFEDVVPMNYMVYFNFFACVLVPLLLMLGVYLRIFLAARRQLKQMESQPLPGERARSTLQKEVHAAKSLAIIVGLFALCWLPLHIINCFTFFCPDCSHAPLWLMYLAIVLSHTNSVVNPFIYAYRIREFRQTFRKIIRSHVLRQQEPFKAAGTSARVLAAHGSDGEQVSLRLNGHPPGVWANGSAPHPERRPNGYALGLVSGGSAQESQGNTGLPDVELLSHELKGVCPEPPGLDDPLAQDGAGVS
Chain of Histone deacetylase 1 (Q13547 whole entry): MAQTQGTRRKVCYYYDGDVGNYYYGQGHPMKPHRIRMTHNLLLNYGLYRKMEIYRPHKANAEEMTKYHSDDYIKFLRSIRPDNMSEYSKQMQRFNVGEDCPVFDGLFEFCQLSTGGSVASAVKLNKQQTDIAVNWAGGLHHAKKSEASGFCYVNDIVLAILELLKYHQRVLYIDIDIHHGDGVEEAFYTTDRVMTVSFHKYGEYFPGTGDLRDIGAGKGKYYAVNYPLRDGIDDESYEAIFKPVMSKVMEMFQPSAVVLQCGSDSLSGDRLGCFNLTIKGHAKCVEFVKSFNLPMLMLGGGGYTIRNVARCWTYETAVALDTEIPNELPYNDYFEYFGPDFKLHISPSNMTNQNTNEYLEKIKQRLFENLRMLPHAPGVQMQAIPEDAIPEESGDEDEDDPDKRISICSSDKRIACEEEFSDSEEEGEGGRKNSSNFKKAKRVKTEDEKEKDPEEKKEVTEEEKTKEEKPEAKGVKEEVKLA

SMILES	Ki (Adenosine receptor A2a) [µM]	IC50 (Histone deacetylase 1) [µM]	IC50 [1] [µM]	GI50 (MC-38; Mus musculus, MC-38) [µM]	GI50 (CT26; Mus musculus, CT26) [µM]	Ki (Adenosine receptor A3) [µM]	GI50 (MC-38) [µM]	GI50 (CT26) [µM]
Nc1nc(NCCc2ccc(OCCCC(=O)NO)cc2)nc2nc(-c3ccco3)nn12	0.006	0.107	0.133	–	–	–	–	–
Nc1nc(NCc2ccc(OCCCCC(=O)NO)cc2)nc2nc(-c3ccco3)nn12	0.0199	0.163	0.035	–	–	–	–	–
Nc1ccccc1NC(=O)c1ccc(CNc2nccc(-c3cccnc3)n2)cc1 [MOCETINOSTAT]	–	–	–	21	1.8	–	–	–
Nc1nc2c(cnn2CCc2ccccc2)c2nc(-c3ccco3)nn12 [SCH-58261]	–	–	–	> 100	> 100	> 10	–	–
Nc1nc2c(cnn2CCCCCC(=O)NO)c2nc(-c3ccco3)nn12	0.0778	0.027	0.015	14	17.8	–	–	–
O=C(CCCCCCC(=O)Nc1ccccc1)NO [VORINOSTAT]	–	–	–	–	–	–	2.4	2.7
Nc1ccccc1NC(=O)c1ccc(OCCn2ncc3c2nc(N)n2nc(-c4ccco4)nc32)cc1	0.0437	0.279	–	7.1	8.8	–	–	–
Nc1nc(NCCc2ccc(OCCCCC(=O)NO)cc2)nc2nc(-c3ccco3)nn12	0.0058	0.102	0.037	–	–	–	–	–
Nc1ccccc1NC(=O)c1ccc(CCCNc2nc(N)n3nc(-c4ccco4)nc3n2)cc1	0.0039	0.0595	> 10	25.4	25.2	–	–	–
Nc1nc(NCc2ccc(C(=O)NO)cc2)nc2nc(-c3ccco3)nn12	0.0848	0.0215	0.003	–	–	–	–	–
Nc1nc(NCc2ccc(/C=C/C(=O)NO)cc2)nc2nc(-c3ccco3)nn12	0.027	0.005	0.009	20.7	17.5	–	–	–
Nc1cc(F)ccc1NC(=O)c1ccc(CCNc2nc(N)n3nc(-c4ccco4)nc3n2)cc1	0.0096	0.173	> 10	25.9	44	–	–	–
Nc1nc2c(cnn2CCN2CCC(c3ccc(C(=O)NO)cc3)CC2)c2nc(-c3ccco3)nn12	0.0037	0.084	0.032	16.9	11.9	–	–	–
CN(CCOc1ccc(C(=O)NO)cc1)c1nc(N)n2nc(-c3ccco3)nc2n1	0.0157	0.0215	0.018	> 100	> 100	–	–	–
Nc1cc(F)ccc1NC(=O)c1ccc(CCCn2ncc3c2nc(N)n2nc(-c4ccco4)nc32)cc1	0.0101	2.68	–	–	–	–	–	–
Nc1nc2c(cnn2CCCCCCC(=O)NO)c2nc(-c3ccco3)nn12	0.0101	0.0038	0.0066	1.4	1.4	–	–	–
Cc1ccc(-c2nc3c4cnn(CCc5ccc(C(=O)Nc6ccccc6N)cc5)c4nc(N)n3n2)o1	0.0185	0.126	–	> 100	> 100	–	–	–
Nc1nc2c(cnn2CCc2ccc(OCCCCCC(=O)NO)cc2)c2nc(-c3ccco3)nn12	0.002	0.081	0.016	–	–	–	–	–
Nc1nc2c(cnn2CCc2ccc(NC(=O)CCCCCCC(=O)NO)cc2)c2nc(-c3ccco3)nn12	0.0049	0.008	0.0059	> 100	> 100	–	–	–
Nc1nc(NCCc2ccc(NC(=O)CCCCCCC(=O)NO)cc2)nc2nc(-c3ccco3)nn12	0.0113	0.0115	0.0059	> 100	> 100	–	–	–
Nc1nc(NCCc2ccc(/C=C/C(=O)NO)cc2)nc2nc(-c3ccco3)nn12	0.0378	0.0102	0.069	40.5	42.9	–	–	–

SMILES	Ki (Adenosine receptor A2a) [µM]	IC50 (Histone deacetylase 1) [µM]	IC50 [1] [µM]	GI50 (MC-38; Mus musculus, MC-38) [µM]	GI50 (CT26; Mus musculus, CT26) [µM]	Ki (Adenosine receptor A3) [µM]	GI50 (MC-38) [µM]	GI50 (CT26) [µM]
Nc1ccccc1NC(=O)c1ccc(CCNc2nc(N)n3nc(-c4ccco4)nc3n2)cc1	0.0039	0.137	> 10	48.2	59.1	–	–	–
Nc1ccccc1NC(=O)c1ccc(OCCNc2nc(N)n3nc(-c4ccco4)nc3n2)cc1	0.0049	0.0685	> 10	36.9	32.4	–	–	–
Nc1nc2c(cnn2CCc2ccc(C(=O)NO)cc2)c2nc(-c3ccco3)nn12	0.0043	0.138	0.0076	100	100	–	–	–
Nc1ccccc1NC(=O)c1ccc(CNc2nc(N)n3nc(-c4ccco4)nc3n2)cc1	0.0348	0.0657	> 10	14.1	16.5	–	–	–
Nc1nc2c(cnn2CCCCC(=O)NO)c2nc(-c3ccco3)nn12	0.0828	0.486	0.074	–	–	–	–	–
Nc1cc(F)ccc1NC(=O)c1ccc(CCn2ncc3c2nc(N)n2nc(-c4ccco4)nc32)cc1	0.0028	0.228	–	10.8	11.2	–	–	–
Nc1nc2c(cnn2CCN2Cc3ccc(C(=O)NO)cc3C2)c2nc(-c3ccco3)nn12	0.0604	> 10	–	–	–	–	–	–
Nc1nc(N2CCN(CCc3ccc(C(=O)NO)cc3)CC2)nc2nc(-c3ccco3)nn12	0.0042	0.221	0.019	> 100	> 100	–	–	–
Nc1nc(NCCOc2ccc(C(=O)NO)cc2)nc2nc(-c3ccco3)nn12	0.0102	0.0074	0.0032	> 100	> 100	–	–	–
Nc1nc(NCCCCCCC(=O)NO)nc2nc(-c3ccco3)nn12	0.0212	0.0077	0.0106	35.7	31.6	–	–	–
CCN(CCc1ccc(C(=O)NO)cc1)c1nc(N)n2nc(-c3ccco3)nc2n1	0.0024	0.175	0.022	–	–	–	–	–
Nc1ccccc1NC(=O)c1ccc(CCCn2ncc3c2nc(N)n2nc(-c4ccco4)nc32)cc1	0.0033	0.203	–	> 100	> 100	–	–	–
Nc1nc(NCCc2ccc(OCCCCCC(=O)NO)cc2)nc2nc(-c3ccco3)nn12	0.00095	0.0867	0.008	15	25.9	–	–	–
Nc1nc(NCCc2ccc(C(=O)NO)cc2)nc2nc(-c3ccco3)nn12	0.0063	0.104	0.0148	> 100	> 100	–	–	–
Nc1ccccc1NC(=O)c1ccc(Cn2ncc3c2nc(N)n2nc(-c4ccco4)nc32)cc1	0.0869	0.053	> 10	–	–	–	–	–
Nc1nc2c(cnn2CCN2CCc3ccc(C(=O)NO)cc3C2)c2nc(-c3ccco3)nn12	0.0056	0.399	0.08	–	–	–	–	–
Nc1nc(NCCCc2ccc(C(=O)NO)cc2)nc2nc(-c3ccco3)nn12	0.0084	0.0237	0.0049	> 100	> 100	–	–	–
Nc1ccccc1NC(=O)c1ccc(CCn2ccc3c2nc(N)n2nc(-c4ccco4)nc32)cc1	0.00087	0.09	–	> 100	> 100	–	–	–
Nc1nc(NCCc2ccc(O)cc2)nc2nc(-c3ccco3)nn12 [ZM-241385]	–	> 10	> 1	–	–	–	–	–
CN(CCc1ccc(C(=O)NO)cc1)c1nc(N)n2nc(-c3ccco3)nc2n1	0.0044	0.159	0.0174	69.2	75.1	–	–	–
